target: human Thrombin (Homo sapiens, UniProt P00734); test: In vitro assay for inhibition of Thrombin (chromogenic or fluorogenic assay); type: biochemical; conditions: Example 2 chromogenic assay, other Examples fluorogenic assay, read-out: thrombin inhibitory Ki
Method: Thrombin inhibitory activity is measured by the ability to inhibit human α-thrombin in a chromogenic assay using N-p-tosyl-gly-pro-lys p-nitroanilide as the chromogenic substrate, or in a fluorogenic assay using Rhodamine 110, bis-(CBZ-L-valyl-L-prolyl-L-arginine amide) as the fluorogenic substrate.
The compound was diluted from a 10 mM stock solution in dimethylsulfoxide at appropriate concentrations. Assay was performed at room temperature using buffer consisting of: 50 mM HEPES, 150 mM NaCl, 5 mM CaCl2, 0.1% PEG, pH 7.4. containing human Thrombin (final conc. of 1 nM). Compound and enzyme were preincubated for 15 min prior to addition of the substrate (final conc. of 100 μM). The reaction was stopped after 30 min with the addition of soybean trypsin inhibitor or H-D-PHE-PRO-ARG-Chloromethylketone. […] To obtain IC50 values the data were analysed using ActivityBase® and XLfit®.
Compounds were diluted from a 10 mM stock solution in dimethylsulfoxide at appropriate concentrations. Assay was performed at room temperature using buffer consisting of: 50 mM HEPES, 150 mM NaCl, 5 mM CaCl2, 0.1% PEG, pH 7.4. containing human Thrombin (final conc. Of 0.2 nM). Compound and enzyme were preincubated for 15 min prior to addition of the substrate (final conc. of 10 μM). The reaction was stopped after 3 hrs with the addition of H-D-PHE-PRO-ARG-Chloromethylketone. […] To obtain IC50 values the data were analysed using ActivityBase® and XLfit®.

| Ki [nM] | SMILES |
| --- | --- |
| < 50 | O=C(C(c1cccnc1)N1CC[C@H](NS(=O)(=O)CCc2ccc(Cl)s2)C1=O)N1CCOCC1 (mixture of isomers) [Example 92, 2-(5-chloro-2-thienyl)-N-{(3S)-1-[2-(4-morpholinyl)-2-oxo-1-(3-pyridinyl)ethyl]-2-oxo-3-pyrrolidinyl}ethanesulfonamide] |
| > 200 | C[C@@H](C(=O)N1CCOCC1)N1CC[C@H](NS(=O)(=O)/C=C/c2ccc(Cl)cc2)C1=O [(E)-2-(4-chlorophenyl)-N-{(3S)-1-[(1S)-1-methyl-2-morpholin-4-yl-2-oxoethyl]-2-oxopyrrolidin-3-yl}ethenesulfonamide, reference compound] |
| < 25 | C/C(=C\S(=O)(=O)N[C@H]1CCN([C@@H](C)C(=O)N2CCOCC2)C1=O)c1ccc(Cl)cc1 [Example 3, (1E)-2-(4-chlorophenyl)-N-{(3S)-1-[(1S)-1-methyl-2-morpholin-4-yl-2-oxoethyl]-2-oxopyrrolidin-3-yl}prop-1-ene-1-sulfonamide] |
| < 50 | C[C@@H](C(=O)N1CCOCC1)N1CC[C@H](NS(=O)(=O)CCc2ccc(Cl)cc2)C1=O [Example 4, 2-(4-chlorophenyl)-N-{(3S)-1-[(1S)-1-methyl-2-morpholin-4-yl-2-oxoethyl]-2-oxopyrrolidin-3-yl}ethanesulfonamide] |
| < 25 | CC[C@@H](C(=O)N1CCOCC1)N1CC[C@H](NS(=O)(=O)CCc2ccc(Cl)s2)C1=O [Example 5, 2-(5-chlorothien-2-yl)-N-{(3S)-1-[(1S)-1-(morpholin-4-ylcarbonyl)propyl]-2-oxopyrrolidin-3-yl}ethanesulfonamide] |
| < 100 | CC[C@@H](C(=O)N1CCOCC1)N1CC[C@H](NS(=O)(=O)CCc2ccc(Cl)cc2)C1=O [Example 6, 2-(4-chlorophenyl)-N-{(3S)-1-[(1S)-1-(morpholin-4-ylcarbonyl)propyl]-2-oxopyrrolidin-3-yl}ethanesulfonamide] |
| < 10 | CC[C@@H](C(=O)N1CCOCC1)N1CC[C@H](NS(=O)(=O)/C=C(\C)c2ccc(Cl)s2)C1=O [Example 7, (1E)-2-(5-chlorothien-2-yl)-N-{(3S)-1-[(1S)-1-(morpholin-4-ylcarbonyl)propyl]-2-oxopyrrolidin-3-yl}prop-1-ene-1-sulfonamide] |
| < 10 | CC(C)[C@@H](C(=O)N1CCOCC1)N1CC[C@H](NS(=O)(=O)CCc2ccc(Cl)s2)C1=O [Example 8, 2-(5-chlorothien-2-yl)-N-{(3S)-1-[(1S)-2-methyl-1-(morpholin-4-ylcarbonyl)propyl]-2-oxopyrrolidin-3-yl}ethanesulfonamide] |
| < 10 | C/C(=C\S(=O)(=O)N[C@H]1CCN([C@H](C(=O)N2CCOCC2)C(C)C)C1=O)c1ccc(Cl)s1 [Example 9, (1E)-2-(5-chlorothien-2-yl)-N-{(3S)-1-[(1S)-2-methyl-1-(morpholin-4-ylcarbonyl)propyl]-2-oxopyrrolidin-3-yl}prop-1-ene-1-sulfonamide] |
| < 10 | CC[C@H](C)[C@@H](C(=O)N1CCOCC1)N1CC[C@H](NS(=O)(=O)CCc2ccc(Cl)s2)C1=O [Example 10, 2-(5-chlorothien-2-yl)-N-{(3S)-1-[(1S,2S)-2-methyl-1-(morpholin-4-ylcarbonyl)butyl]-2-oxopyrrolidin-3-yl}ethanesulfonamide] |
| < 10 | CC[C@H](C)[C@@H](C(=O)N1CCOCC1)N1CC[C@H](NS(=O)(=O)/C=C(\C)c2ccc(Cl)s2)C1=O [Example 11, (1E)-2-(5-chlorothien-2-yl)-N-{(3S)-1-[(1S,2S)-2-methyl-1-(morpholin-4-ylcarbonyl)butyl]-2-oxopyrrolidin-3-yl}prop-1-ene-1-sulfonamide] |
| < 25 | CC[C@H](C)[C@@H](C(=O)N1CCOCC1)N1CC[C@H](NS(=O)(=O)CCc2ccc(Br)cc2)C1=O [Example 12, 2-(4-bromophenyl)-N-{(3S)-1-[(1S,2S)-2-methyl-1-(morpholin 4-ylcarbonyl)butyl]-2-oxopyrrolidin-3-yl}ethanesulfonamide] |
| < 25 | O=C([C@H](Cc1ccccc1)N1CC[C@H](NS(=O)(=O)CCc2ccc(Cl)s2)C1=O)N1CCOCC1 [Example 13, N-{(3S)-1-[(1S)-1-benzyl-2-morpholin-4-yl-2-oxoethyl]-2-oxopyrrolidin-3-yl}-2-(5-chlorothien-2-yl)ethanesulfonamide] |
| < 10 | C/C(=C\S(=O)(=O)N[C@H]1CCN([C@@H](Cc2ccccc2)C(=O)N2CCOCC2)C1=O)c1ccc(Cl)s1 [Example 14, (1E)-N-{(3S)-1-[(1S)-1-benzyl-2-morpholin-4-yl-2-oxoethyl]-2-oxopyrrolidin-3-yl}-2-(5-chlorothien-2-yl)prop-1-ene-1-sulfonamide] |
| < 50 | COC[C@@H](C(=O)N1CCOCC1)N1CC[C@H](NS(=O)(=O)CCc2ccc(Cl)s2)C1=O [Example 15, 2-(5-chlorothien-2-yl)-N-{(3S)-1-[(1S)-1-(methoxymethyl)-2-morpholin-4-yl-2-oxoethyl]-2-oxopyrrolidin-3-yl}ethanesulfonamide] |
| < 10 | COC[C@@H](C(=O)N1CCOCC1)N1CC[C@H](NS(=O)(=O)/C=C(\C)c2ccc(Cl)s2)C1=O [Example 16, (1E)-2-(5-chlorothien-2-yl)-N-{(3S)-1-[(1S)-1-(methoxymethyl)-2-morpholin-4-yl-2-oxoethyl]-2-oxopyrrolidin-3-yl}prop-1-ene-1-sulfonamide] |
| < 10 | CO[C@H](C)[C@@H](C(=O)N1CCOCC1)N1CC[C@H](NS(=O)(=O)CCc2ccc(Cl)s2)C1=O [Example 17, 2-(5-chlorothien-2-yl)-N-{(3S)-1-[(1S,2R)-2-methoxy-1-(morpholin-4-ylcarbonyl)propyl]-2-oxopyrrolidin-3-yl}ethanesulfonamide] |
| < 10 | CO[C@H](C)[C@@H](C(=O)N1CCOCC1)N1CC[C@H](NS(=O)(=O)/C=C(\C)c2ccc(Cl)s2)C1=O [Example 18, (1E)-2-(5-chlorothien-2-yl)-N-{(3S)-1-[(1S,2R)-2-methoxy-1-(morpholin-4-ylcarbonyl)propyl]-2-oxopyrrolidin-3-yl}prop-1-ene-1-sulfonamide] |
| < 50 | C[C@@H](C(=O)N1CCOCC1)N1CC[C@H](N(C)S(=O)(=O)CCc2ccc(Cl)s2)C1=O [Example 19, 2-(5-Chlorothien-2-yl)-N-methyl-N-{(3S)-1-[(1S)-1-methyl-2-morpholin-4-yl-2-oxoethyl]-2-oxopyrrolidin-3-yl}ethanesulfonamide] |
| < 25 | C[C@@H](C(=O)N1CCOCC1)N1CC[C@H](N(CC(N)=O)S(=O)(=O)CCc2ccc(Cl)s2)C1=O [Example 20, N^2-{[2-(5-Chlorothien-2-yl)ethyl]sulfonyl}-N^2-{(3S)-1-[(1S)-1-methyl-2-morpholin-4-yl-2-oxoethyl]-2-oxopyrrolidin-3-yl}glycinamide] |
| < 10 | O=C(C[C@@H](C(=O)N1CCOCC1)N1CC[C@H](NS(=O)(=O)CCc2ccc(Cl)s2)C1=O)OCc1ccccc1 [Example 21, Benzyl (3S)-3-[(3S)-3-({[2-(5-chlorothien-2-yl)ethyl]sulfonyl}amino)-2-oxopyrrolidin-1-yl]-4-morpholin-4-yl-4-oxobutanoate] |
| < 10 | C/C(=C\S(=O)(=O)N[C@H]1CCN([C@@H](CC(=O)OCc2ccccc2)C(=O)N2CCOCC2)C1=O)c1ccc(Cl)s1 [Example 22, Benzyl (3S)-3-[(3S)-3-({[(1E)-2-(5-Chlorothien-2-yl)prop-1-enyl]sulfonyl}amino)-2-oxopyrrolidin-1-yl]-4-morpholin-4-yl-4-oxobutanoate] |
| < 10 | O=C([C@H](Cc1cccs1)N1CC[C@H](NS(=O)(=O)CCc2ccc(Cl)s2)C1=O)N1CCOCC1 [Example 23, 2-(5-chlorothien-2-yl)-N-{(3S)-1-[(1S)-2-morpholin-4-yl-2-oxo-1-(thien-2-ylmethyl)ethyl]-2-oxopyrrolidin-3-yl}ethanesulfonamide] |
| < 25 | O=C([C@H](Cc1cccs1)N1CC[C@H](NS(=O)(=O)CCc2ccc(Cl)cc2)C1=O)N1CCOCC1 [Example 24, 2-(4-chlorophenyl)-N-{(3S)-1-[(1S)-2-morpholin-4-yl-2-oxo-1-(thien-2-ylmethyl)ethyl]-2-oxopyrrolidin-3-yl}ethanesulfonamide] |
| < 200 | C[C@@H](C(=O)N1CCOCC1)N1CC[C@H](NS(=O)(=O)CCc2ccc(Cl)cc2F)C1=O [Example 25, 2-(4-chloro-2-fluorophenyl)-N-{(3S)-1-[(1S)-1-methyl-2-morpholin-4-yl-2-oxoethyl]-2-oxopyrrolidin-3-yl}ethanesulfonamide] |
| < 100 | CC[C@@H](C(=O)N1CCOCC1)N1CC[C@H](NS(=O)(=O)CCc2ccc(Br)cc2)C1=O [Example 26, 2-(4-bromophenyl)-N-{(3S)-1-[(1S)-1-(morpholin-4-ylcarbonyl)propyl]-2-oxopyrrolidin-3-yl}ethanesulfonamide] |
| < 25 | C[C@@H](C(=O)N1CCOCC1)N1CC[C@H](NS(=O)(=O)CC(F)(F)c2ccc(Cl)cc2)C1=O [Example 27, 2-(4-chlorophenyl)-2,2-difluoro-N-{(3S)-1-[(1S)-1-methyl-2-morpholin-4-yl-2-oxoethyl]-2-oxopyrrolidin-3-yl}ethanesulfonamide] |
